From patent publication US7943330B2, “Tailored glycoproteomic methods for the sequencing, mapping and identification of cellular glycoproteins” (Academia Sinica, priority 2007, dated 2011)

How the values were obtained:
Jurkat cells = test: Flow cytometry of cell-surface CuAAC labeling of alkynyl-tagged glycans; type: cell-based; details: for cell-surface fluorescent labeling: CuAAC with 3-azido-7-hydroxycoumarin probe
Description: Cell culture: Breast cancer MCF-7 and Jurkat cells were cultivated (2×10^6/10 ml) in RPMI 1640 medium (Invitrogen) supplemented with 10% FCS. Peracetylated alkynyl sugars Fucyne (200 uM) and ManNAcyne (25 uM) or native control sugars ManNAc for 1 to 3 days at 37° C.
Flow cytometry analysis: Cells were harvested, washed with 0.1% FCS/PBS, and resuspended (10^6 cells for Jurkat cells; 3×10^5 cells for other cells) in 100 microliters of click reaction solution (0.1 mM biotin probe, 0.1 mM Tris-triazoleamine catalyst, 0.1 mM CuSO4/0.5 mM sodium ascorbate, in PBS). The reaction was incubated at room temperature for 30 min, and then the cells were washed twice with 0.1% FCS/PBS. Cells treated with biotin probe were subsequently stained with fluorescein-conjugated streptavidin (0.5 microgram per sample in 50 microliters of 1% FCS/PBS) for 30 min at 4° C., and washed three times with 1% FCS/PBS. Data were acquired by BD LSR II with FACSDiva software, and were analyzed by CellQuestPro software (BD Biosciences).

cells = test: Cell toxicity of sugar analogs at the levels used for metabolic incorporation; type: cell-based; details: compared with azido Fuc analogs of previous approaches; 200 μM fucose precursors, 25 μM sialic acid precursors
Description: In an exemplary implementation of the MOE method disclosed herein, an appropriate cell growth medium is supplemented with a peracetylated version of the CuAAC competent sugars, 25 μM for sialic acid precursors and 200 μM for fucose precursors (although peracetylation increases cellular uptake of sugars, the acetate groups are cleaved by esterases before it is converted to the nucleotide-sugar donor and incorporated into emerging glycans via glycosyltransferases). As shown by the biosynthetic pathways in FIG. 1, the ManNAc derivatives feed directly into de novo synthesis of NeuAc-CMP, whereas, fucose derivatives are incorporated through a salvage pathway for the synthesis of Fuc-GDP. For labeling, the alkyne-tagged cellular glycans, cells and/or cell lysates are treated with an appropriate CuAAC probe (depicted as 6-8 in FIG. 2). Overall, CuAAC is well-suited for functionalizing cellular glycans since it may be performed in aqueous environments, with high chemoselectively, to form stable 1,2,3-triazoles in nearly quantitative yield, starting from inconspicuous and inert azide or alkyne reaction partners. In conjunction the triazole ligand, CuAAc reactions can be executed under very mild and biocompatible conditions, requiring ambient temperature and low reactant concentrations. […] CuAAC is well-suited for end-point analysis, such as flow cytometry and glycoproteomic purposes. […]

[1] = test system: plexin B2 in A549 mock, FucT4 and FucT6 cells; test: Incorporation of alkynyl fucose into plexin B2 glycans (IP, on-membrane click reaction, streptavidin blot); type: cell-based; details: alkynyl fucose-treated mock, stronger in FucT4/6-overexpressing cells, no signal without treatment
Description: Total proteins were extracted from untreated or alkynyl fucose-treated mock control, FucT4 and FucT6 stable cell lines. Proteins ([…]) were dissolved in 500 ml IP buffer (1% NP-40, 150 mM NaCl, 10% glycerol, 50 mM HEPES, pH 7.5 and 1×EDTA-free protease inhibitor cocktail) and precleared with 25 ml protein G beads (GE Healthcare) at 4° C. for 1 h. Precleared proteins extracts were then incubated with 3 mg anti-plexin B2 antibody/25 ml protein G beads at 4° C. for 1 h for overnight. Immunoprecipitates were subjected to SDS-PAGE and the proteins were transferred to PVDF membrane. After blocking with 5% BSA/PBST (0.1% Tween 20/PBS) for 1 h and wash with PBST and PBS sequentially, the protein-side of PVDF membrane was faced down to immerse in click reaction mixture (0.1 mM azido biotin, 0.1 mM Tris-triazoleamine catalyst, 1 mM CuSO4, 2 mM sodium ascorbate; 1 ml for a blot from a mini-gel) and incubated at room temperature for 1 h. After wash with PBST twice, the membrane was probed with peroxidase-conjugated streptavidin for biotin tags on blots.
Comparative profiling of fucosylated N-linked glycoproteins using the GIDmap method disclosed herein was conducted in lung cancer cell line A549 over-expressing either fucosyltransferases (FucT) 4 or 6. […] The biotin signals were then detected by immunoblotting with peroxidase-conjugated streptavidin. […]

[2] = test system: MCF7 (breast adenocarcinoma) cells; test: Confocal microscopy of intracellular labeling of alkynyl-tagged glycans; type: cell-based, Human; details: 3-day incubation, biotin probe and fluorescein-conjugated streptavidin, overlaps with WGA (Golgi) signal
Description: (§1) To visualize the localization of alkyne-tagged glycans, adherent cells were grown on slides in the presence or absence of alkynyl sugar analogs or precursors. After a 3-day-incubation, cells attached to the slides are fixed, permeabilized, and labeled with either a biotin probe or fluorogenic coumarin probe for fluorescent signal analysis with confocal microscopy, as shown in FIG. 3C. For comparison, samples are also stained with wheat germ agglutinin (WGA, a Golgi marker).
(§2) Fluorescent Labeling in Cells: Human hepatocellular carcinoma cells (Hep3B) or breast adenocarcinoma cells (MCF7) were seeded onto six-well plates (3×10^5/2 ml per well) containing glass coverslips, and were cultivated in 10% FCS/DMEM or 10% FCS/RPMI medium 1640. Growth medium was supplemented with a control sugar (200 micromolar Fuc or 25 micromolar ManNAc) and an alkynyl-modified sugar (Fucyne or ManNAcyne at the same concentration as control sugars). After growing for 3 days, cells on coverslips were fixed and permeabilized with acetone for 10 min, then subjected to the probe labeling reaction: 0.1 mM biotin probe or fluorogenic coumarin probe, 0.1 mM Tris-triazoleamine catalyst, 1 mM CuSO4, 2 mM sodium ascorbate, in PBS, at room temperature for 30 min. Subsequently, the fixed and labeled cells were rinsed with PBS and stained with Alexa Fluor 594-conjugated WGA lectin (2 micrograms/ml in 5% BSA/PBS) and/or fluorescein-conjugated streptavidin (2 micrograms/ml in 5% BSA/PBS) at room temperature for 30 min. Hoechst 33342 (10 microgram/ml in PBS) was used to stain nuclei. Fluorescent images were captured by Bio-Rad (Carl Zeiss) Radiance 2100 Rainbow laser scanning confocal microscopy system.

[3] = test system: cell extracts (soluble lysate fractions); test: SDS/PAGE, Western blot and fluorescence detection of labeled glycoproteins in cell extracts; type: cell-based; details: for biotin-labeling signal of proteins by Western blot: lysate clicked with biotin probe, mouse anti-biotin MAb, 200 micromolar Fucyne, 25 micromolar ManNAcyne, 3 days; for signal by Western blot or fluorescence: control sugars processed under the same click condition
Description: Immunoblotting (IB) and immunoprecipitation (IP): Cells were seeded at 3×10^6/8 ml per 10-cm dish and treated with control and test sugars (200 micromolar Fuc vs. Fucyne or 25 micromolar ManNAc vs. ManNAcyne) in growth medium at 37° C. After 3 days, cell extracts were prepared by resuspending the cells in 1 ml of lysis buffer (1% Nonidet P-40/150 mM NaCl/protease inhibitor/100 mM sodium phosphate, pH 7.5). Protein extract (1 mg/ml) was labeled for 1 h at room temperature (0.1 mM biotin probe, or fluorogenic coumarin probe, 0.1 mM tris-triazoleamine catalyst, 1 mM CuSO4, and 2 mM sodium ascorbate, in PBS; the azido rhodamine probe was a gift from Benjamin F. Cravatt, The Scripps Research Institute). Labeled protein lysate was resolved by SDS/PAGE. For immunoblotting of biotin-labeled glycoproteins, electrophoresed proteins were transferred onto PVDF membranes, blocked for 20 min with SuperBlock® Blocking Buffer. Blots were either probed for 1 h with anti-biotin MAb (1 microgram/ml), and incubated with peroxidase-conjugated goat anti-mouse IgG (1:7,500 dilution) for 30 min; or probed for 1 h with peroxidase-conjugated anti-biotin Ab (Calbiochem)(1:5000 in SuperBlock). Each step was followed by a wash with 0.02% Tween 20/PBS (PBST). Signal was developed with SuperSignal Chemiluminescent Substrate and detected by exposure to x-ray film. For detecting the coumarin-labeled glycoproteins, gels were examined under 365 nm UV light with a 535+/−50 nm filter. Images were taken by using a BioDoc-It imaging system (UVP). Rhodamine gels were analyzed as described (Speers A E, Cravatt B F (2004) Chem Biol 11:535-546).

[4] = test system: Hep3B hepatocellular carcinoma cells; test: Confocal microscopy of intracellular labeling of alkynyl-tagged glycans; type: cell-based, Human; details: 3-day incubation; biotin probe and fluorogenic coumarin probe; compared with the Fucyne result
Description: as §1, §2

1,2,3,4-tetraacetyl alkynyl fucose [Fucyne]
cell-surface fluorescent labeling (Jurkat cells): significant fluorescent labeling | toxicity to cells (cells): greatly reduced toxicity | biotin signal of immunoprecipitated plexin B2 after on-membrane CuAAC [1]: positive signals | intracellular labeling signal (confocal microscopy) [2]: strong punctuate-labeling signal | biotin-labeling signal of proteins by Western blot [3]: specific biotin-labeling signals were detected

C#CCCC(=O)N[C@@H]1C(OC(C)=O)O[C@H](COC(C)=O)[C@@H](OC(C)=O)[C@@H]1OC(C)=O (stereo partly shown) [ManNAcyne, 1,3,4,6-tetra-O-acetyl-N-4-pentynoylmannosamine]
cell-surface labeling signal (Jurkat cells; CuAAC-labeled with biotin, detected by fluorescein-conjugated streptavidin, vs control ManNAc): specific signal on the cell surface | toxicity to cells (cells): greatly reduced toxicity | biotin-labeling signal of proteins by Western blot [3]: specific biotin-labeling signals were detected

C[C@H](O)[C@@H](O)[C@@H](O)[C@H](O)C=O [Fuc, Fucose, reference compound]
cell-surface fluorescent labeling (Jurkat cells): very low background signals | intracellular labeling signal (confocal microscopy) [2]: very low background | signal by Western blot or fluorescence [3]: little to no signal

CC(=O)N[C@@H]1C(O)O[C@H](CO)[C@@H](O)[C@@H]1O (stereo partly shown) [ManNAc, N-acetylmannosamine, reference compound]
intracellular labeling signal (confocal microscopy) [4]: very low background | signal by Western blot or fluorescence [3]: little to no signal
